The source made the active and inactive calls.
Columns and labels:
[1] = biological target: T1, Microphthalmia-associated transcription factor (Homo sapiens, UniProt O75030); test: reducers of TRPM1 reporter luminescence, concentration series – cell-based, SK-MEL-5, cherry-picked, set 3, MITF inhibitor project, dose response (AID 493073); format: functional;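 further: SK-MEL-5 melanoma cells with luciferase driven by the MITF target TRPM1 promoter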
T1 sequence (O75030 whole entry): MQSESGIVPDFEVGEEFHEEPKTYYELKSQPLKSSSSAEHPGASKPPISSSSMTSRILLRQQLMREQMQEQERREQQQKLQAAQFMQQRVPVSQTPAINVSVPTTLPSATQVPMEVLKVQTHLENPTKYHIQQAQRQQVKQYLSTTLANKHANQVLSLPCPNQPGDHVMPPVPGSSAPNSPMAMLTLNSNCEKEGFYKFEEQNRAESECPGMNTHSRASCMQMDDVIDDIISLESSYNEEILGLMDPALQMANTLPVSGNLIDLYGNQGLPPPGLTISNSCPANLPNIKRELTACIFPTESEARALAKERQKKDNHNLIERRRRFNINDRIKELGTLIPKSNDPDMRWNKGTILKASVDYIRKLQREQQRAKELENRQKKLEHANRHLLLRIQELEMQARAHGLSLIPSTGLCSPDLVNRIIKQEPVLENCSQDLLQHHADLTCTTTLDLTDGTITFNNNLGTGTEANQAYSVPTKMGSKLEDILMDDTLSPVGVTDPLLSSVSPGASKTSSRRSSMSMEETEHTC

[2] = test system: INS1; test: INS-1E survival protection against cytokine death – cell-based, luminescence, retest, dose response (AID 449756); format: functional; details: Rattus norvegicus;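 further: cell death triggered by IL-1 beta plus TNF-alpha plus IFN-gamma mixture; protective hits raise ATP signal compared with cytokine alone wells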
[3] = Luminescence Cell-Based Dose Retest to Confirm Inhibitors of Cancer Stem Cells. [Related pubchem assays (depositor defined):AID2717, AID2721]; format: functional; details: Homo sapiens
[4] = test system: A-375; test: proliferation inhibition in MITF-low A375 cells – cell-based, cherry-pick samples, set 2, counter-screen for MITF modulator project, dose response (AID 540335); format: functional; details: Homo sapiens
[5] = biological target: Lysine-specific demethylase 4A (Homo sapiens, UniProt O75164); test: inhibition of JMJD2A H3K9me3 demethylation – biochemical, DELFIA europium, cherry-picked samples, selectivity assay for GASC-1 inhibitor project, dose response (AID 488840)
Lysine-specific demethylase 4A, sequence (O75164 whole entry, the tested form may be a part): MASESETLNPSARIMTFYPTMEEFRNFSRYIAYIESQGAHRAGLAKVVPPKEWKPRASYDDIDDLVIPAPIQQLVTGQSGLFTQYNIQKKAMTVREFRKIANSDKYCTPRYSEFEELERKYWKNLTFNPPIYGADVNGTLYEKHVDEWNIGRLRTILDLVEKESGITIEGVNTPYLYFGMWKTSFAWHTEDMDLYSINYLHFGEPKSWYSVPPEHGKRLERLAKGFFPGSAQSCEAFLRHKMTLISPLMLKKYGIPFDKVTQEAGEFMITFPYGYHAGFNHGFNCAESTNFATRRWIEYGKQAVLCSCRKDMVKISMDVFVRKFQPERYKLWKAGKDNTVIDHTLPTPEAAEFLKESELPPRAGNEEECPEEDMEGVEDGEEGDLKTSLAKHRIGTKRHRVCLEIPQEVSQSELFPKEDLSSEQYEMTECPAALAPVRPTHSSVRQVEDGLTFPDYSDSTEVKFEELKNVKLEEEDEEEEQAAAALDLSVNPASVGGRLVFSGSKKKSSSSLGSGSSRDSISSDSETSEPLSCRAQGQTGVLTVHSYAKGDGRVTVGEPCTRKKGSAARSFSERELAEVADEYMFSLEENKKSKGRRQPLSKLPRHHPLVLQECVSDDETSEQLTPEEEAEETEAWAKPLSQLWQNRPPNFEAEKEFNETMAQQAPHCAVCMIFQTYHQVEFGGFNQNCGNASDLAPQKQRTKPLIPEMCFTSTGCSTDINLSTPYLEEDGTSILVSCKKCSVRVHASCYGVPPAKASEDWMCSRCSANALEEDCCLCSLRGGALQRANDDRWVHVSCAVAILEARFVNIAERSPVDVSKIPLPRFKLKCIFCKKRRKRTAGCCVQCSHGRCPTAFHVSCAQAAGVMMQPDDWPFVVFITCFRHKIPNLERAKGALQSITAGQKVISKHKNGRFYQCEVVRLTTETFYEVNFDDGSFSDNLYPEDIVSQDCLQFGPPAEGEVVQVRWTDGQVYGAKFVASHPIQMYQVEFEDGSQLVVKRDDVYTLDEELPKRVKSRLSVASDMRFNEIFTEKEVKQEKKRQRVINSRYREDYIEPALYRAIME

[6] = biological target: T2, RNA-binding protein pos-1 (Caenorhabditis elegans, UniProt G5EF15); test: disruptors of C. elegans POS-1 RNA interaction – biochemical, fluorescence polarization, dose response (AID 1964);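 further: purified POS-1 fused to maltose binding protein made in E. coli; potency of compounds blocking POS-1 binding to fluorescent RNA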
T2 sequence (G5EF15 whole entry): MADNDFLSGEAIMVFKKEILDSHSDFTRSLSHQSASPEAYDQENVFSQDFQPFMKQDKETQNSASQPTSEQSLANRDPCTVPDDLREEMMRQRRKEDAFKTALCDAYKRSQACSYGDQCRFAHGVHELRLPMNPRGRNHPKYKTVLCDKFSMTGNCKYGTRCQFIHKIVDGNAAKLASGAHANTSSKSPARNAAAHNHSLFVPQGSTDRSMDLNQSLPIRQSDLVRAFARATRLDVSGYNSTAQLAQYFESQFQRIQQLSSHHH

[7] = biological target: T3, Zinc finger protein mex-5 (Caenorhabditis elegans, UniProt Q9XUB2); test: potency of MEX-5 RNA-binding blockers – biochemical, C. elegans, fluorescence polarization, dose response (AID 1960)
T3 sequence (Q9XUB2 whole entry): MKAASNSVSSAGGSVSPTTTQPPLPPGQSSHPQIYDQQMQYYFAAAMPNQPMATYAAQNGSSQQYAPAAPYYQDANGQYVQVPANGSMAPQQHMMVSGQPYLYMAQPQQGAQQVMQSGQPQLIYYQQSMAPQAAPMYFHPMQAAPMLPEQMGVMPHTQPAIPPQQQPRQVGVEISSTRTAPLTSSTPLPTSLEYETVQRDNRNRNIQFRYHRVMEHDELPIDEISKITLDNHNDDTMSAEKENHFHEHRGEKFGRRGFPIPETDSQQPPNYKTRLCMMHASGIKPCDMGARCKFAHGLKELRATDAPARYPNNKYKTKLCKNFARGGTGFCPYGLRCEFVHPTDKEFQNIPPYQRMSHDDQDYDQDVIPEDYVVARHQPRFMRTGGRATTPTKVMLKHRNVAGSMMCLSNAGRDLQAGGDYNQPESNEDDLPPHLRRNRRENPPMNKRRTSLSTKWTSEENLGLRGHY

[8] = biological target: T4, Lysine-specific demethylase 4C (Homo sapiens, UniProt Q9H3R0); test: inhibition of JMJD2C H3K9me3 demethylation – biochemical, DELFIA europium, cherry-picked samples, dose response (AID 488835); format: functional
T4 sequence (Q9H3R0 whole entry): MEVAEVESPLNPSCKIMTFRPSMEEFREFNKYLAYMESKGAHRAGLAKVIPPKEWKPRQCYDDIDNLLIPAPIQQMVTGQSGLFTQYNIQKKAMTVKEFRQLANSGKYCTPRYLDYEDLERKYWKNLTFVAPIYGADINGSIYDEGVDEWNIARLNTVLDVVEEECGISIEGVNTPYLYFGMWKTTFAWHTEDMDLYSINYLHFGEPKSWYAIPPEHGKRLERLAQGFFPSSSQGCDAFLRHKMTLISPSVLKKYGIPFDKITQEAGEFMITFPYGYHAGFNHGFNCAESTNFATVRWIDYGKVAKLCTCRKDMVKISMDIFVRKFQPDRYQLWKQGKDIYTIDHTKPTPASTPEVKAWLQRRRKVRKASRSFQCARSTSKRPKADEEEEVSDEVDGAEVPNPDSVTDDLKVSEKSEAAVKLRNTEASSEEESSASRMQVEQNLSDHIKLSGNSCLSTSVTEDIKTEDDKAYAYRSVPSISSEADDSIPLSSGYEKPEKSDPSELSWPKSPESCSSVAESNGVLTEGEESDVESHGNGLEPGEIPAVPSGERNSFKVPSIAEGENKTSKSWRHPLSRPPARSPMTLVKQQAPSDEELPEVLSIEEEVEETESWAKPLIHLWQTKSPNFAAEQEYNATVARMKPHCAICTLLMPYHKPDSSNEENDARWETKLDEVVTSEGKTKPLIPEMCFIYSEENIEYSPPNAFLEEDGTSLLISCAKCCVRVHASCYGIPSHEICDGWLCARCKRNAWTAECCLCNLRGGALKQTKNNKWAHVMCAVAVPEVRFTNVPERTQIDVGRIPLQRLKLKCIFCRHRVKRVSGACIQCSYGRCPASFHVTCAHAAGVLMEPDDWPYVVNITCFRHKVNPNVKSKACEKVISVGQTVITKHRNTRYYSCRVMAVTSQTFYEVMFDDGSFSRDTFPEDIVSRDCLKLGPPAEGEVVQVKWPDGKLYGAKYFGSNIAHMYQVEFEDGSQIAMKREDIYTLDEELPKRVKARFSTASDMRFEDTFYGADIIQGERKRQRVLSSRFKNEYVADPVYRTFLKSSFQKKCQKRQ

[9] = biological target: Cytochrome P450 2C19 (Homo sapiens, UniProt P33261); test: Cytochrome panel assay with activity outcomes. Panel member name: p450-cyp2c19 Compounds with AC50 equal or less than 10 uM are considered active; format: functional; details: read-out: AC50
Cytochrome P450 2C19, sequence (P33261 whole entry): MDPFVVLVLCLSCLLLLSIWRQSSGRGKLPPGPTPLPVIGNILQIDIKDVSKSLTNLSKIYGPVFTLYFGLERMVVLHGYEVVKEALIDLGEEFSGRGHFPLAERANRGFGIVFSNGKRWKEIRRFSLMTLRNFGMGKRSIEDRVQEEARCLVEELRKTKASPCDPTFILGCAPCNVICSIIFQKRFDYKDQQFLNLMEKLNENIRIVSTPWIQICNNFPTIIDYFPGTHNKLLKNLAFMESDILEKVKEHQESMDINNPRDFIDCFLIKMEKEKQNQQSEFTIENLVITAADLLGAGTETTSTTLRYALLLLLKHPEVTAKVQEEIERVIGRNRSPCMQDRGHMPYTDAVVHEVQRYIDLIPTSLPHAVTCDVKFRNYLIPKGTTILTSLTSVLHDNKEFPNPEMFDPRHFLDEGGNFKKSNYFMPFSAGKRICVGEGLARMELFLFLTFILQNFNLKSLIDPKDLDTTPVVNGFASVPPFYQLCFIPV

[10] = biological target: Cytochrome P450 2D6 (Homo sapiens, UniProt P10635);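 further: CYP2D6 member of a cytochrome P450 panel assay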
Cytochrome P450 2D6, sequence (P10635 whole entry): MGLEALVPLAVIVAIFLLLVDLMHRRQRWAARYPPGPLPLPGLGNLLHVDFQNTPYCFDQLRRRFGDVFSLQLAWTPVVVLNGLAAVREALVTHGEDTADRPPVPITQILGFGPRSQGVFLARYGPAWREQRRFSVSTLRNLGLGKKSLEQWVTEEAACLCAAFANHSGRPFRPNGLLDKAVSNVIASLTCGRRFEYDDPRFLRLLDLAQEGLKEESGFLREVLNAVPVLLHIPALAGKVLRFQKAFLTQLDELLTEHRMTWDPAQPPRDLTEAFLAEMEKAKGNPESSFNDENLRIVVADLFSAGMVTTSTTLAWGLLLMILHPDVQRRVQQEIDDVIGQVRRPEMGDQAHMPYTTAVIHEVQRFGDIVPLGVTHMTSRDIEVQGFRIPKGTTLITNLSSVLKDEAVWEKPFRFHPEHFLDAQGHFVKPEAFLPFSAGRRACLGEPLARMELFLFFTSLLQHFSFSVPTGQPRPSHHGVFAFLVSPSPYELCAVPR

[11] = biological target: T5, Leucine aminopeptidase (Plasmodium falciparum 3D7, UniProt Q8IL11); test: P. falciparum M17LAP inhibitors, primary screen, biochemical, fluorogenic H-Leu-NHMec substrate, 1536-well (AID 1619); format: functional
T5 sequence (Q8IL11 whole entry): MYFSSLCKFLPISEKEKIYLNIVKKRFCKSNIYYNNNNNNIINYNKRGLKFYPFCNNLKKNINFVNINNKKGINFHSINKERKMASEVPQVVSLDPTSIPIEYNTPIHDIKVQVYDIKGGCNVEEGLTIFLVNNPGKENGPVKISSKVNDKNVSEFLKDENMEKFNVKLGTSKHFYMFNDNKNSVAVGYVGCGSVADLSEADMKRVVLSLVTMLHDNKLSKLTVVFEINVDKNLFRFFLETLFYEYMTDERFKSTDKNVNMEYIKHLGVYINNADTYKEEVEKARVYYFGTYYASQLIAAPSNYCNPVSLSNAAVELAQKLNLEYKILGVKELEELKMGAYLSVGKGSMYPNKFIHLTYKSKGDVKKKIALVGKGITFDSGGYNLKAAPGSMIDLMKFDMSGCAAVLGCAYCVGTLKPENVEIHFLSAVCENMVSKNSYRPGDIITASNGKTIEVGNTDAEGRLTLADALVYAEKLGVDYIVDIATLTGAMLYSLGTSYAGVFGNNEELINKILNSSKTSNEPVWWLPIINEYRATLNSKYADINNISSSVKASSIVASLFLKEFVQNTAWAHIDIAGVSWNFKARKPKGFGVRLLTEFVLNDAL

[12] = biological target: Cytochrome P450 2C9 (Homo sapiens, UniProt P11712)
Cytochrome P450 2C9, sequence (P11712 whole entry): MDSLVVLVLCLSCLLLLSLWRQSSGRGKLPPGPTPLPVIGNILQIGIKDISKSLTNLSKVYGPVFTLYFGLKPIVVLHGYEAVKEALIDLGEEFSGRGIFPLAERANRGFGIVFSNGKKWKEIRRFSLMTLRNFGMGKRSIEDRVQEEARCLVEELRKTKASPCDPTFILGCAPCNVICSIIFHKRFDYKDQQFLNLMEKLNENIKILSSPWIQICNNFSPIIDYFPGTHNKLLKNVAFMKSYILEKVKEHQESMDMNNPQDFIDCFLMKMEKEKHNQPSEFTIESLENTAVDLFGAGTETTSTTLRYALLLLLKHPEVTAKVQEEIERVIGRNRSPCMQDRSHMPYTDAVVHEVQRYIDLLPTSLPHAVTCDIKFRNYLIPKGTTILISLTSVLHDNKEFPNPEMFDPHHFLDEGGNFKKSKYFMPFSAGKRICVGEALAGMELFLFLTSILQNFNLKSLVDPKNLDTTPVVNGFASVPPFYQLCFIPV

[13] = test system: Jurkat; test: SAR Analysis of small molecule inhibitors of T-cell specific antigen receptor-induced NF-kB activation in a Jurkat cell line using a luminescence assay - Set 2. [Related pubchem assays (depositor defined):AID435003, AID435012, AID465]; format: functional, cell-based; details: Homo sapiens
[14] = test system: HEK293; test: SAR Analysis of small molecule inhibitors of T-cell specific antigen receptor-induced NF-kB activation in a HEK-293T cell line using a luminescence assay - Set 2. [Related pubchem assays (depositor defined):AID435003, AID435012, AID489026]; format: functional, cell-based; details: Homo sapiens
[15] = test system: HEK293; test: HEK293T cell viability loss, resazurin readout – resazurin fluorescence, cytotoxicity control for NF-kB activator project, SAR follow-up (AID 493251); format: functional, cell-based; details: Homo sapiens
[16] = HEK-293T viability loss, compound-treated – cell-based, uHTS hits, cytotoxicity control for B/T-cell NF-kB inhibitor project, dose response (AID 489019); format: functional;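 further: IC50 reflects cytotoxicity as loss of cell viability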
[17] = test system: Jurkat; test: blockers of NF-kB activation in T cells – Jurkat, luciferase reporter, luminescence, B- and T-cell, dose response (AID 489004); format: functional, cell-based; details: Homo sapiens;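 further: NF-kB luciferase reporter Jurkat cells stimulated with PMA plus ionomycin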

Cc1ccc(C)c(NC(=O)/C(C#N)=C/c2cn(CC(=O)NCc3ccco3)c3ccccc23)c1
AC50 [1]: 6.56 µM (active)
AC50 [2]: 3.67 µM (active)
AC50 [3]: 57.8 µM (active)
AC50 [4]: 33.9 µM (active)

Cn1c(=O)c2[nH]c(N=NNc3ccccc3F)nc2n(C)c1=O
AC50 [5]: 17.3 µM (active)
EC50 [6]: 62 µM (active)
EC50 [7]: 21.7 µM (active)
AC50 [8]: 8.83 µM (active)

Cc1ccc(NC(=O)c2cc(NC(=O)CCC(=O)O)ccc2N2CCCCC2)cc1
AC50 [9]: 35.5 µM (inconclusive)
AC50 [10]: inconclusive
IC50 [11]: 11.8 µM (active)
AC50 [12]: 14.1 µM (inconclusive)

Cc1ccc(NC(=O)c2ccc([N+](=O)[O-])o2)cc1C(F)(F)F
IC50 [13]: 0.45 µM (active)
IC50 [14]: 68.5 µM (inactive)
IC50 [15]: 60 µM (inactive)

CCCCCCCCn1ccc(=N)cc1
IC50 [16]: > 80 µM (inactive)
AC50 [2]: 0.585 µM (active)
IC50 [17]: > 80 µM (inactive)

From ChEMBL document CHEMBL1201862, “PubChem BioAssay data set” (2004)
